This is an account of results in patent US20180305334A1, “COMPOUNDS, COMPOSITIONS AND METHODS OF USE AGAINST STRESS GRANULES” (Aquinnah Pharmaceuticals, Inc., priority 2015, published 2018).

Common to all, as to format: cell-based
Assay [1] deals with Embryonic mouse hippocampal neurons transduced with AAV1 EGFP, WT TDP-43 EGFP, A315T TDP-43 EGFP, or Q331K TDP-43 EGFP. The experiment in a line: Neuroprotection assay. The conditions noted are these: average rescue total dendrite length; neurons treated DIV7, 9, 11 at 10 times the IC50 value; fixed DIV12. How it is done:
CMF dissection buffer: 1× Hank's balanced salt solution (Ca—/Mg, 500 mL) and 10 mM HEPES, pH 7.25-7.3 (1M stock, 5 mL)
Plating media: MEM (Earle salts+/Glutamine, 95 mL), FBS (to 2.5%, 2.5 mL), Pen/Strep (lx, 1 mL), glutamine (lx, 1 mL), and D-glucose (0.6% w/v, 0.6 g)
Feeding media: neurobasal media (96 mL), B27 supplement (2 mL), Pen/Strep (1 mL), and glutamine (1 mL).
Embryonic mouse hippocampal neurons were cultured according to Kaech, S. and Banker, G. (2006) Nat Protoc 1:2406-2415 and dissected at PO from CD1 mice. Once all the hippocampi were removed, they were placed in a 15 mL conical Falcon tube on ice and brought to a final volume of 4.5 mL with CMF dissection buffer. 0.5 mL of a 2.5% trypsin-EDTA solution was then added, and the mixture was incubated at 37° C. for 15 min. The trypsin solution was gently removed, leaving the tissue at the bottom of the Falcon tube. 5 mL CMF dissection buffer was then added, and after gentle mixing, the tissue was allowed to sediment. This procedure was repeated three times. The hippocampi were then dissociated by adding 1.8 mL platting media and repeatedly pipetting in a glass Pasteur pipette; the dissociation process was repeated 5-10 times. The cells were then passed through a 70 um cell strainer into a 50 mL conical tube to remove clumps and debris, and the neurons were plated on glass coverslips coated with poly-D-lysine/laminin. On DIV 1 neurons were transduced with AAV1 EGFP, WT TDP-43 EGFP, A315T TDP-43 EGFP, or Q331K TDP-43 EGFP. […] Neurons were traced and analyzed using NeuronJ.
Results of the neuroprotection assay for exemplary compounds of the invention are summarized in Table 2, wherein A represents an average rescue total dendrite length of >150%; B represents an average rescue total dendrite length of 100-149%; C represents an average rescue total dendrite length of 50-99%; D represents an average rescue total dendrite length of 0-49%; E represents an average rescue total dendrite length of <0%; and ND signifies that the average rescue total dendrite length was not determined.

Assay [2] relates to TDP-43 inclusions in PC12 cells stably expressing wild type (WT) TDP-43-GFP. The experiment in a line: Dose response assay for TDP-43 inhibition. The conditions noted are these: Rattus norvegicus, PC-12, inhibition of TDP-43 inclusions, stressed with 15 μM, 12-point dose response. How it is done: Exemplary compounds of the invention were evaluated for efficacy in inhibiting TDP-43 inclusions using a dose response assay. Briefly, PC12 cells stably expressing wild type (WT) TDP-43-GFP were stressed with 15 μM to induce TDP-43 inclusions. The cells were then treated with exemplary compounds of the invention and the inhibitory effect on TDP-43 inclusions was observed using fluorescent microscopy. The ratio of cells with TDP-43 inclusions was calculated based on the total number of cells with detectable GFP expression. A 12-point dose response curve was generated, and the IC50 for each compound tested was determined.

Assay [3] deals with TDP-43 aggregation in PC12 cells stably expressing TDP-43^Q331K::eGFP. The experiment in a line: In vitro efficacy assay, TDP-43 aggregation concentration-response. The conditions noted are these: PC12 TDP-43^Q331K::eGFP, 1 hour pre-treatment, 15 μM sodium arsenite for 23 hours, 10-point dose response. The method in brief:
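PC12 cells stably expressing TDP-43^Q331K::eGFP pre-treated with compound for 1 h, then stressed with 15 μM sodium arsenite for 23 h. Fluorescence microscopy scored the fraction of GFP-positive cells carrying TDP-43 aggregates across compound concentrations.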

Where [4] appears, read: Rattus norvegicus, PC-12, inhibition of TDP-43 aggregation.
Where [5] appears, read: inhibition of TDP-43 aggregation.

The pIC50 is the negative decadic logarithm of the IC50, by convention in mol/L.

pIC50: −log10 of the molar value. A value given as a limit tells only on which side of the number the result lay.

`COc1cc(NC(=O)CCC2CCCN(Cc3ccc(F)c(OC)c3)C2)cc(OC)c1` (stereo not shown) [Compound 100, N-(3,5-dimethoxyphenyl)-3-(1-(4-fluoro-3-methoxybenzyl)-piperidin-3-yl)propanamide]: the “Average Additive Dendrite Length (%)” value in assay [1] is given as “E (E represents an average rescue total dendrite length of <0%)”. The compound also had a pIC50 in assay [2] of 6.60 to 7.00.
With `CCN(CC1CCCN(CCc2cccc(OC)c2)C1)C(=O)c1cc2ccccc2[nH]1` (stereo not shown) [Compound 101, N-ethyl-N-((1-(3-methoxyphenethyl)piperidin-3-yl)methyl)-1H-indole-2-carboxamide], in assay [1], the “Average Additive Dendrite Length (%)” value is given as “C (C represents an average rescue total dendrite length of 50-99%)”. For the same compound, the pIC50 in assay [2] was 6.60 to 7.00; in assay [3] (setting [4]), greater than 5.82.
`COc1ccccc1OCC(=O)NC1CCCN(c2nc3ccccc3s2)C1` (stereo not shown) [Compound 102, N-(1-(benzo[d]thiazol-2-yl)piperidin-3-yl)-2-(2-methoxyphenoxy)acetamide]: the “Average Additive Dendrite Length (%)” value in assay [1] is listed as “B (B represents an average rescue total dendrite length of 100-149%)”. This compound also showed a pIC50 in assay [2] of 6.30 to 6.60.
Consider `COc1cccc(CN2CCC(CNC(=O)c3cc4ccccc4[nH]3)CC2)c1` [compound 292], for which the pIC50 in assay [3] (setting [4]) was less than 5.00.
The same measure, in the same setting: in the case of `O=C(NCC1CCN(Cc2ccccc2Cl)CC1)c1cc2ccccc2[nH]1` [compound 293] it was less than 5.00; in that of `O=C(NCC1CCN(Cc2ccc(F)cc2)CC1)c1cc2ccccc2[nH]1` [compound 294], less than 5.00.
Same read-out and setting: in the case of `O=C(NCC1CCN(Cc2ccccc2)CC1)c1cc2ccccc2[nH]1` [compound 295] it was 5.15 to 5.40.
Turning to `O=C(c1cc2ccccc2[nH]1)N(CC1CCN(CCc2ccccc2)CC1)CC(F)(F)F` [compound 305], in assay [3] (setting [4]), the pIC50 was greater than 5.82.
For `O=C(c1cc2ccccc2[nH]1)N(CC1CCN(CCc2cccc(F)c2)CC1)CC(F)(F)F` [compound 306], the pIC50 in assay [3] (setting [4]) was greater than 5.82.
Regarding `COc1cccc(CCN2CCC(CN(CC(F)(F)F)C(=O)c3cc4ccccc4[nH]3)CC2)c1` [compound 307], the pIC50 in assay [3] (setting [4]) is greater than 5.82.
On the same count and under the same terms, in the case of `CCN(CC1CCN(Cc2cccc(OC(F)(F)F)c2)CC1)C(=O)c1cc2cc(OC(F)(F)F)ccc2[nH]1` [compound 308] it was less than 5.00; in that of `CCN(CC1CCN(Cc2ccc(OC(F)(F)F)cc2)CC1)C(=O)c1cc2cc(OC(F)(F)F)ccc2[nH]1` [compound 309], less than 5.00; in that of `CCN(CC1CCN(Cc2cccc(OC(F)F)c2)CC1)C(=O)c1cc2cc(OC(F)F)ccc2[nH]1` [compound 310], 5.15 to 5.40.
On the same count and under the same terms, in the case of `CCN(CC1CCN(Cc2ccc(OC(F)F)cc2)CC1)C(=O)c1cc2cc(OC(F)F)ccc2[nH]1` [compound 311] it was 5.00 to 5.15.
On the same count and under the same terms, in the case of `CCN(CC1CCCN(C(C)(C)Cc2cccc(OC)c2)C1)C(=O)c1cc2ccccc2[nH]1` (stereo not shown) [compound 312] it was 5.40 to 5.82.
As to `CCN(CC1CCCN(C(C)(C)Cc2cccc(OC)c2)C1)C(=O)c1cc2cc(OC)ccc2[nH]1` (stereo not shown) [compound 313], in assay [3] (setting [5]), the pIC50 is less than 5.00.
On to `CCN(CC1CCCN(C(C)(C)Cc2cccc(Cl)c2)C1)C(=O)c1cc2ccccc2[nH]1` (stereo not shown) [compound 314], for which the pIC50 in assay [3] (setting [4]) is greater than 5.82.
On the same count and under the same terms, in the case of `CCN(CC1CCCN(C(C)(C)Cc2cccc(OC(F)F)c2)C1)C(=O)c1cc2cc(OC(F)F)ccc2[nH]1` (stereo not shown) [compound 315] it was greater than 5.82.
For the compound `CCN(CC1CCCN(C(C)(C)Cc2cccc(OC(F)(F)F)c2)C1)C(=O)c1cc2cc(OC(F)(F)F)ccc2[nH]1` (stereo not shown) [compound 316], in assay [3] (setting [5]), the pIC50 was 5.15 to 5.40.
Turning to `CCN(CC1CCCN(C(C)(C)c2cc3ccccc3o2)C1)C(=O)c1cc2ccccc2[nH]1` (stereo not shown) [compound 317], the pIC50 in assay [3] (setting [4]) is 5.40 to 5.82.
Regarding `CCN(CC1CCN(CC(C)(C)c2cc3ccccc3o2)CC1)C(=O)c1cc2ccccc2[nH]1` [compound 318], the pIC50 in assay [3] (setting [5]) is greater than 5.82.
In the case of `CCN(CC1CCNCC1)C(=O)c1cc2cc(OC)ccc2[nH]1` [compound 400], the pIC50 in assay [3] (setting [4]) was less than 5.00.
Turning to `CCN(CC1CCNCC1)C(=O)c1cc2cc(OC(F)(F)F)ccc2[nH]1` [compound 401], the pIC50 in assay [3] (setting [4]) is 5.15 to 5.40.
For `CCN(CC1CCNCC1)C(=O)c1cc2cc(OC(F)F)ccc2[nH]1` [compound 402], in assay [3] (setting [4]), the pIC50 was less than 5.00.
Same read-out and setting: for `CCN(CC1CCN(Cc2ccc(Cl)cc2)CC1)C(=O)c1cc2cc(OC)ccc2[nH]1` [compound 403] the value was 5.40 to 5.82; for `CCN(CC1CCN(Cc2ccc(OC)cc2)CC1)C(=O)c1cc2cc(OC)ccc2[nH]1` [compound 404], greater than 5.82; for `CCN(CC1CCCNC1)C(=O)c1cc2cc(F)ccc2[nH]1` (stereo not shown) [compound 414], less than 5.00.
Take `CCN(CC1CCCNC1)C(=O)c1cc2cc(OC)c(OC)cc2[nH]1` (stereo not shown) [compound 415]: the pIC50 in assay [3] (setting [4]) is less than 5.00.
In the case of `CCN(CC1CCCNC1)C(=O)c1cc2c(Cl)cc(Cl)cc2[nH]1` (stereo not shown) [compound 416], the pIC50 in assay [3] (setting [4]) was less than 5.00.
Same read-out and setting: for `CCN(CC1CCCNC1)C(=O)c1cc2ccc(C)cc2[nH]1` (stereo not shown) [compound 417] the value was less than 5.00; for `CCN(CC1CCCNC1)C(=O)c1cc2cccc(F)c2[nH]1` (stereo not shown) [compound 418], less than 5.00.
Still for that read-out and setting: for `CCN(CC1CCCNC1)C(=O)c1cc2ccc(OC)cc2[nH]1` (stereo not shown) [compound 419] the value was less than 5.00; for `CCN(CC1CCCNC1)C(=O)c1cc2cc(Cl)ccc2[nH]1` (stereo not shown) [compound 420], less than 5.00; for `CCN(CC1CCCNC1)C(=O)c1cc2c(F)cccc2[nH]1` (stereo not shown) [compound 421], 5.15 to 5.40.
Turning to `CCN(CC1CCCNC1)C(=O)c1cc2c(OC)cccc2[nH]1` (stereo not shown) [compound 422], the pIC50 in assay [3] (setting [4]) is less than 5.00.
On the same count and under the same terms, for `CCN(CC1CCCNC1)C(=O)c1cc2ccc(Cl)cc2[nH]1` (stereo not shown) [compound 423] the value was greater than 5.82; for `CCN(CC1CCCNC1)C(=O)c1cc2cc(OCc3ccccc3)ccc2[nH]1` (stereo not shown) [compound 424], 5.15 to 5.40.
Still for that read-out and setting: in the case of `CCN(CC1CCCNC1)C(=O)c1cc2cc(OC(F)F)ccc2[nH]1` (stereo not shown) [compound 425] it was less than 5.00; in that of `CCN(CC1CCCNC1)C(=O)c1cc2cc(OC(F)(F)F)ccc2[nH]1` (stereo not shown) [compound 426], less than 5.00.
